Reference: ChEMBL document CHEMBL4665770, “Design and Discovery of Natural Cyclopeptide Skeleton Based Programmed Death Ligand 1 Inhibitor as Immune Modulator for Cancer Therapy” (J Med Chem, 2020)
Square brackets hold non-standard residues; d marks the D form. Peptide text beside a SMILES is read from it.

Biological target: Programmed cell death protein 1/Programmed cell death 1 ligand 1 (Homo sapiens) (UniProt Q15116+Q9NZQ7)
Experiment: Inhibition of PD1-Tag2/PD-L1-Tag1 (unknown origin) protein-protein interaction at 20 uM preincubated for 15 mins followed by addition of anti-Tag1-Eu3+ and anti-Tag2-XL665 measured after 3 hrs by HTRF assay relative to control
Type: protein-complex assay
Conditions: time 195.0 min

SMILES: CC(C)C[C@@H]1NC(=O)[C@H](CCCNC(=N)N)NC(=O)[C@H](C(C)C)NC(=O)[C@@H]2CCCN2C(=O)[C@@H](Cc2ccccc2)NC(=O)[C@H](CC(C)C)NC(=O)[C@H](CCCNC(=N)N)NC(=O)[C@H](C)NC(=O)[C@@H]2CCCN2C(=O)[C@@H](Cc2ccccc2)NC1=O (cyclo(ARL[dF]PVRL[dF]P))
- inhibition: 22.4%

SMILES: CC(C)C[C@@H]1NC(=O)[C@H](CC(=O)O)NC(=O)[C@H](C(C)C)NC(=O)[C@@H]2CCCN2C(=O)[C@@H](Cc2ccccc2)NC(=O)[C@H](CC(C)C)NC(=O)[C@H](CCCNC(=N)N)NC(=O)[C@H](CCC(=O)O)NC(=O)[C@@H]2CCCN2C(=O)[C@@H](Cc2ccccc2)NC1=O
- inhibition: -3.03%

SMILES: CC(C)C[C@@H]1NC(=O)[C@H](CCCNC(=N)N)NC(=O)[C@H](C(C)C)NC(=O)[C@@H]2CCCN2C(=O)[C@@H](Cc2ccccc2)NC(=O)[C@H](C)NC(=O)[C@H](CC(C)C)NC(=O)[C@H](C(C)C)NC(=O)[C@@H]2CCCN2C(=O)[C@@H](Cc2ccccc2)NC1=O (cyclo(A[dF]PVRL[dF]PVL))
- inhibition: 4.03%

SMILES: CC(C)C[C@@H]1NC(=O)[C@H](CCCNC(=N)N)NC(=O)[C@H](C(C)C)NC(=O)[C@@H]2CCCN2C(=O)[C@@H](Cc2ccccc2)NC(=O)[C@H](C)NC(=O)[C@H](CCCNC(=N)N)NC(=O)[C@H](C(C)C)NC(=O)[C@@H]2CCCN2C(=O)[C@@H](Cc2ccccc2)NC1=O (cyclo(A[dF]PVRL[dF]PVR))
- inhibition: 21%

SMILES: CC(NCCCC[C@@H]1NC(=O)[C@@H](Cc2ccccc2)NC(=O)[C@H](CC(C)C)NC(=O)[C@H](CC(=O)O)NC(=O)[C@H]([C@@H](C)O)NC(=O)[C@@H]2CCCN2C(=O)[C@@H](Cc2c[nH]c3ccccc23)NC(=O)[C@H](CC(C)C)N(C)C(=O)[C@H](CCCNC(=N)N)NC(=O)[C@H](C(C)C)NC1=O)=C1C(=O)CC(C)(C)CC1=O
- inhibition: 16.1%

SMILES: CC(C)C[C@@H]1NC(=O)[C@H](CCCNC(=N)N)NC(=O)[C@H](CC(=O)O)NC(=O)[C@H](C(C)C)NC(=O)[C@@H]2CCCN2C(=O)[C@@H](Cc2ccccc2)NC(=O)[C@H](CC(C)C)NC(=O)[C@H]([C@@H](C)O)NC(=O)[C@@H]2CCCN2C(=O)[C@@H](Cc2ccccc2)NC1=O (cyclo(DRL[dF]PTL[dF]PV))
- inhibition: -4.8%

SMILES: CC(C)C[C@@H]1NC(=O)[C@H](CCCNC(=N)N)NC(=O)[C@H](C(C)C)NC(=O)[C@@H]2CCCN2C(=O)[C@@H](Cc2ccccc2)NC(=O)[C@H](CC(C)C)NC(=O)[C@H]([C@@H](C)O)NC(=O)[C@H](CC(=O)O)NC(=O)[C@@H]2CCCN2C(=O)[C@@H](Cc2ccccc2)NC1=O (cyclo(DTL[dF]PVRL[dF]P))
- inhibition: 23.9%

SMILES: CC(C)C[C@@H]1NC(=O)[C@H](CC(=O)O)NC(=O)[C@H]([C@@H](C)O)NC(=O)[C@@H]2CCCN2C(=O)[C@@H](Cc2ccccc2)NC(=O)[C@H](CC(C)C)NC(=O)[C@H](CC(=O)O)NC(=O)[C@H](C(C)C)NC(=O)[C@@H]2CCCN2C(=O)[C@@H](Cc2ccccc2)NC1=O
- inhibition: -6.65%

SMILES: CC(C)C[C@@H]1NC(=O)[C@H](CC(=O)O)NC(=O)[C@H]([C@@H](C)O)NC(=O)[C@@H]2CCCN2C(=O)[C@@H](Cc2c[nH]c3ccccc23)NC(=O)[C@H](CC(C)C)NC(=O)[C@H](CCCNC(=N)N)NC(=O)[C@H](C(C)C)NC(=O)[C@@H]2CCCN2C(=O)[C@@H](Cc2ccccc2)NC1=O (cyclo(DL[dF]PVRL[dW]PT))
- inhibition: 43.4%

SMILES: CC(C)C[C@@H]1NC(=O)[C@H](CCCNC(=N)N)NC(=O)[C@H]([C@@H](C)O)NC(=O)[C@@H]2CCCN2C(=O)[C@@H](Cc2ccccc2)NC(=O)[C@H](CC(C)C)NC(=O)[C@H](CC(=O)O)NC(=O)[C@H](C)NC(=O)[C@@H]2CCCN2C(=O)[C@@H](Cc2ccccc2)NC1=O (cyclo(ADL[dF]PTRL[dF]P))
- inhibition: 41.2%

SMILES: CC(C)C[C@@H]1NC(=O)[C@H](CCCNC(=N)N)NC(=O)[C@H](C(C)C)NC(=O)[C@@H]2CCCN2C(=O)[C@@H](Cc2ccccc2)NC(=O)[C@H](CC(C)C)NC(=O)[C@H]([C@@H](C)O)NC(=O)[C@@H]2CCCN2C(=O)[C@@H](Cc2ccccc2)NC(=O)[C@H](CC(=O)O)NC1=O (cyclo(D[dF]PTL[dF]PVRL))
- inhibition: -2.13%
